# Assay results reported in ChEMBL document CHEMBL3885861, “Open TG-GATES”.
# Organism: Rattus norvegicus
# Assay: Open TG-GATES - Regimen: Daily Repeat
# Format: toxicity, organism-based, Sprague-Dawley
# Set-up: regimen Daily Repeat, gender Male, age 6 weeks
# Conditions: in vivo, po, 30 mg/kg, route gavage, dose level Low; for APTT / Bas / Eos / Fbg / Hb / Ht / Lym / MCH / MCHC / MCV / Mono / Neu / PT / Plat / RBC / Ret / WBC: tissue Blood; for KIDNEY_L / KIDNEY_R / KIDNEY_TOTAL: tissue Kidney; for LIVER: tissue Liver; for ALP / ALT / AST / BUN / CRE / DBIL / GLC / IP / K / LDH / Na / PL / RALB / TBIL / TC / TG / TP / gamma-GTP: tissue Plasma
structure (smiles),measurement,setting,value
Clc1ccccc1CN1CCc2sccc2C1 [TICLOPIDINE],TERMINAL_BW,"72 h, time 3 day",232 g
same,APTT,"72 h, time 3 day",19.7 s
same,Bas,"72 h, time 3 day",0.6%
same,Eos,"72 h, time 3 day",1%
same,Fbg,"72 h, time 3 day",223.6 mg/dL
same,Hb,"72 h, time 3 day",13.6 g/dL
same,Ht,"72 h, time 3 day",38.5%
same,Lym,"72 h, time 3 day",74.2%
same,MCH,"72 h, time 3 day",21.5 pg
same,MCHC,"72 h, time 3 day",35.2%
same,MCV,"72 h, time 3 day",61.1 fL
same,Mono,"72 h, time 3 day",3%
same,Neu,"72 h, time 3 day",20.2%
same,PT,"72 h, time 3 day",11.6 s
same,Plat,"72 h, time 3 day",129 x10_4/uL
same,RBC,"72 h, time 3 day",631.6 x10_4/ul
same,Ret,"72 h, time 3 day",6.2%
same,WBC,"72 h, time 3 day",88 x10_2/uL
same,KIDNEY_L,"72 h, time 3 day",1 g
same,KIDNEY_R,"72 h, time 3 day",1 g
same,KIDNEY_TOTAL,"72 h, time 3 day",2 g
same,LIVER,"72 h, time 3 day",11.3 g
same,ALP,"72 h, time 3 day",1106 IU/L
same,ALT,"72 h, time 3 day",36.4 IU/L
same,AST,"72 h, time 3 day",67.8 IU/L
same,BUN,"72 h, time 3 day",14.8 mg/dL
same,CRE,"72 h, time 3 day",0.4 mg/dL
same,DBIL,"72 h, time 3 day",0.072 mg/dL
same,GLC,"72 h, time 3 day",212 mg/dL
same,IP,"72 h, time 3 day",7.5 mg/dL
same,K,"72 h, time 3 day",4.1 meq/L
same,LDH,"72 h, time 3 day",163.6 IU/L
same,Na,"72 h, time 3 day",142 meq/L
same,PL,"72 h, time 3 day",155.8 mg/dL
same,RALB,"72 h, time 3 day",3.4 g/dL
same,TBIL,"72 h, time 3 day",0.1 mg/dL
same,TC,"72 h, time 3 day",75.4 mg/dL
same,TG,"72 h, time 3 day",100.8 mg/dL
same,TP,"72 h, time 3 day",5.6 g/dL
same,gamma-GTP,"72 h, time 3 day",1 IU/L
same,TERMINAL_BW,"[…], time 7 day",262.3 g
same,TERMINAL_BW,"[…], time 14 day",314 g
same,TERMINAL_BW,"[…], time 28 day",386.1 g
same,APTT,"[…], time 7 day",18.1 s
same,Bas,"[…], time 7 day",0.8%
same,Eos,"[…], time 7 day",1%
same,Fbg,"[…], time 7 day",231.2 mg/dL
same,Hb,"[…], time 7 day",14.1 g/dL
same,Ht,"[…], time 7 day",39.3%
same,Lym,"[…], time 7 day",76%
same,MCH,"[…], time 7 day",21.3 pg
same,MCHC,"[…], time 7 day",35.7%
same,MCV,"[…], time 7 day",59.7 fL
same,Mono,"[…], time 7 day",3.2%
same,Neu,"[…], time 7 day",18.2%
same,PT,"[…], time 7 day",11.2 s
same,Plat,"[…], time 7 day",117.8 x10_4/uL
same,RBC,"[…], time 7 day",658.6 x10_4/ul
same,Ret,"[…], time 7 day",5.8%
same,WBC,"[…], time 7 day",104.1 x10_2/uL
same,APTT,"[…], time 14 day",21.4 s
same,Bas,"[…], time 14 day",0.8%
same,Eos,"[…], time 14 day",0.8%
same,Fbg,"[…], time 14 day",221.2 mg/dL
same,Hb,"[…], time 14 day",14.1 g/dL
same,Ht,"[…], time 14 day",39.2%
same,Lym,"[…], time 14 day",78.6%
same,MCH,"[…], time 14 day",21.2 pg
same,MCHC,"[…], time 14 day",36.1%
same,MCV,"[…], time 14 day",58.7 fL
same,Mono,"[…], time 14 day",2.6%
same,Neu,"[…], time 14 day",16.8%
same,PT,"[…], time 14 day",11.6 s
same,Plat,"[…], time 14 day",116.9 x10_4/uL
same,RBC,"[…], time 14 day",668.2 x10_4/ul
same,Ret,"[…], time 14 day",4.7%
same,WBC,"[…], time 14 day",124.8 x10_2/uL
same,APTT,"[…], time 28 day",18 s
same,Bas,"[…], time 28 day",0.6%
same,Eos,"[…], time 28 day",1.2%
same,Fbg,"[…], time 28 day",223.6 mg/dL
same,Hb,"[…], time 28 day",14.9 g/dL
same,Ht,"[…], time 28 day",40.4%
same,Lym,"[…], time 28 day",82%
same,MCH,"[…], time 28 day",19.9 pg
same,MCHC,"[…], time 28 day",37%
same,MCV,"[…], time 28 day",53.7 fL
same,Mono,"[…], time 28 day",2%
same,Neu,"[…], time 28 day",13.8%
same,PT,"[…], time 28 day",11.7 s
same,Plat,"[…], time 28 day",106 x10_4/uL
same,RBC,"[…], time 28 day",752.8 x10_4/ul
same,Ret,"[…], time 28 day",2.9%
same,WBC,"[…], time 28 day",115.9 x10_2/uL
same,KIDNEY_L,"[…], time 7 day",1.1 g
same,KIDNEY_R,"[…], time 7 day",1.1 g
same,KIDNEY_TOTAL,"[…], time 7 day",2.2 g
same,KIDNEY_L,"[…], time 14 day",1.3 g
same,KIDNEY_R,"[…], time 14 day",1.2 g
same,KIDNEY_TOTAL,"[…], time 14 day",2.5 g
same,KIDNEY_L,"[…], time 28 day",1.3 g
same,KIDNEY_R,"[…], time 28 day",1.3 g
same,KIDNEY_TOTAL,"[…], time 28 day",2.7 g
same,LIVER,"[…], time 7 day",12.2 g
same,LIVER,"[…], time 14 day",14.3 g
same,LIVER,"[…], time 28 day",15.6 g
same,ALP,"[…], time 7 day",861.2 IU/L
same,ALT,"[…], time 7 day",38.4 IU/L
same,AST,"[…], time 7 day",71.8 IU/L
same,BUN,"[…], time 7 day",15.4 mg/dL
same,CRE,"[…], time 7 day",0.4 mg/dL
same,DBIL,"[…], time 7 day",0.068 mg/dL
same,GLC,"[…], time 7 day",204.4 mg/dL
same,IP,"[…], time 7 day",7.6 mg/dL
same,K,"[…], time 7 day",3.9 meq/L
same,LDH,"[…], time 7 day",167.6 IU/L
same,Na,"[…], time 7 day",142.4 meq/L
same,PL,"[…], time 7 day",150.8 mg/dL
same,RALB,"[…], time 7 day",3.5 g/dL
same,TBIL,"[…], time 7 day",0.1 mg/dL
same,TC,"[…], time 7 day",78.4 mg/dL
same,TP,"[…], time 7 day",5.7 g/dL
same,gamma-GTP,"[…], time 7 day",1 IU/L
same,ALP,"[…], time 14 day",887.6 IU/L
same,ALT,"[…], time 14 day",36.4 IU/L
same,AST,"[…], time 14 day",68.8 IU/L
same,BUN,"[…], time 14 day",16.8 mg/dL
same,CRE,"[…], time 14 day",0.4 mg/dL
same,DBIL,"[…], time 14 day",0.058 mg/dL
same,GLC,"[…], time 14 day",225.4 mg/dL
same,IP,"[…], time 14 day",7.7 mg/dL
same,K,"[…], time 14 day",4.2 meq/L
same,LDH,"[…], time 14 day",174.2 IU/L
same,Na,"[…], time 14 day",142.2 meq/L
same,PL,"[…], time 14 day",154.8 mg/dL
same,RALB,"[…], time 14 day",3.3 g/dL
same,TBIL,"[…], time 14 day",0.1 mg/dL
same,TC,"[…], time 14 day",74.4 mg/dL
same,TG,"[…], time 14 day",120.6 mg/dL
same,TP,"[…], time 14 day",5.7 g/dL
same,gamma-GTP,"[…], time 14 day",1 IU/L
same,ALP,"[…], time 28 day",647.4 IU/L
same,ALT,"[…], time 28 day",37 IU/L
same,AST,"[…], time 28 day",64.2 IU/L
same,BUN,"[…], time 28 day",15.8 mg/dL
same,CRE,"[…], time 28 day",0.5 mg/dL
same,DBIL,"[…], time 28 day",0.07 mg/dL
same,GLC,"[…], time 28 day",200.8 mg/dL
same,IP,"[…], time 28 day",7.2 mg/dL
same,K,"[…], time 28 day",3.8 meq/L
same,LDH,"[…], time 28 day",145 IU/L
same,Na,"[…], time 28 day",142 meq/L
same,PL,"[…], time 28 day",158.4 mg/dL
same,RALB,"[…], time 28 day",3.5 g/dL
same,TBIL,"[…], time 28 day",0.1 mg/dL
same,TC,"[…], time 28 day",78.4 mg/dL
same,TG,"[…], time 28 day",133.8 mg/dL
same,TP,"[…], time 28 day",5.8 g/dL
same,gamma-GTP,"[…], time 28 day",1 IU/L
